Test: Human HepG2 cell viability assay in 384 well format
Assay type: toxicity, cell-based
Parameters: dose 125 nL, time 70.5 hour; concentration not given beside the values
Conditions: HepG2 cells, read-out: Inhibition

Row | SMILES | cytotoxicity at 70.5 h
1 | CCOCC1CCN(C(=O)C(c2ccccc2F)N(C)C)CC1 (configuration not stated) | -8.49%
2 | CC(C)(C)c1n[nH]c(C2CN(C(=O)c3csnn3)CCO2)n1 (configuration not stated) | 22.6%
3 | CCCn1nnnc1COc1ccc(C(=O)OC)cc1OC | -16.9%
4 | Cc1nc(N2CCOc3ccc(CO)cc3C2)c2nc(C)oc2n1 | -1.34%
5 | Cc1cc(CNC(=O)c2cn(CCC3CCCCN3)nn2)on1 (configuration not stated) | -5.72%
6 | Cc1cnc2c(S(=O)(=O)NCC3CCN(C4CC4)C3)cccc2c1 (configuration not stated) | -5.3%
7 | CNC(=O)CS(=O)(=O)Cc1cc(Cl)c2c(c1)OCCO2 | -4.61%
8 | O=C(Nc1ccccc1)C1CN(C(=O)c2cccs2)CC12CCOCC2 (configuration not stated) | -0.505%
9 | CNC(=O)[C@@H](C1CCCCC1)N1CCC[C@H]1C(=O)NCCN1CCCC1 | 3.4%
10 | CCc1nc(CNc2cc(Cl)ccc2OCC2CCCO2)no1 (configuration not stated) | -8.62%
11 | Cc1ccc(S(=O)(=O)NC(=O)CCOCc2ccccc2)s1 | -10.6%
12 | Cc1nc(CCC(N)=O)cc(C2CCCN2S(C)(=O)=O)n1 (configuration not stated) | 0.687%
13 | Cc1nc(CN2CCc3ncnc(-c4ccc(F)cc4)c3CC2)cs1 | -4.74%
14 | CN(C)S(=O)(=O)c1ccc(-c2nc(C#N)c(NC(C)(C)C)o2)o1 | -8.34%
15 | O=C(CN1CC(n2cccn2)C1)NCCCN1CCCC1=O | 22.2%
16 | Cc1nc[nH]c1CN1CCCn2nc(CN3CCC(F)(F)CC3)cc2C1 | -9.44%
17 | CSCC[C@H](NC(=O)CCn1ccc2c(Cl)cccc21)C(=O)O | -2.74%
18 | COc1ccccc1CCNS(=O)(=O)N1CCOCC1 | -11.8%
19 | Cc1ccc(C2CN(CCS(=O)(=O)C(C)C)CCO2)c(C)c1 (configuration not stated) | -1.77%
20 | O=C([C@@H]1C[C@@H]2CCN(c3cccc(F)c3)C[C@H]2O1)N1CCCC1 | 27.2%
21 | O=C(c1ccco1)N1CC[C@@H]2[C@H]1CCC(=O)N2c1ccccc1 | -15.1%
22 | Cc1cc(C(F)F)nn1C(C)C(=O)NCc1nccn1C (configuration not stated) | -0.123%
23 | O=C(NCCC(=O)N1CCCC1)C(OC1CCCC1)c1ccccc1 (configuration not stated) | 34.3%

Row | SMILES | cytotoxicity at 70.5 h
24 | Cn1cnnc1C1CCCN(C(=O)c2cc(Cl)c3c(c2)OCO3)C1 (configuration not stated) | -11.6%
25 | CC(c1nc(C2CC2)no1)N1CCN(Cc2noc(C3CC3)n2)CC1 (configuration not stated) | -2.08%
26 | Cc1c(CN2CCOCC2)c(O)n(CCO)c(=O)c1C#N | 41%
27 | N#CC1(c2ccccc2)CCN(C(=O)C2CCCN(CC(N)=O)C2)CC1 (configuration not stated) | 1.9%
28 | Cc1cc(C)n(CC2CN(c3ccc(C#N)cn3)CCO2)n1 (configuration not stated) | -3.22%
29 | Cn1cc(CN2CCC(CCC(=O)Nc3ccccc3Cl)CC2)cn1 | 4.76%
30 | CC(C)COC(=O)N1CC(=O)N(CCCc2ccccc2)CC(O)C1 (configuration not stated) | -4.38%
31 | CN1[C@H]2CC[C@@H]1CN(c1cc(Sc3cccs3)nc(N)n1)CC2 | 22.8%
32 | CN(C(=O)c1cccnc1OCC(F)F)c1ccc2c(c1)CCO2 | -9.98%
33 | CCC(O)CN1CCN(C(=O)c2ccn(-c3ccccc3)n2)CC1 (configuration not stated) | 2.94%
34 | CC(NC(=O)NCCNc1cccc(F)c1C#N)c1nccs1 (configuration not stated) | -2.26%
35 | CCOc1cccc(C(=O)Nc2ccn(CC)n2)c1 | -19.9%
36 | Cc1nn(C(C)C)c(C)c1S(=O)(=O)Nc1cccc(F)c1 | -0.473%
37 | NS(=O)(=O)CCN1CCN(c2cc(F)ccc2F)CC1 | 10.3%
38 | COc1ccc2[nH]c(C[C@@H]3C[C@@H](C(C)C)[C@H](CN(C)C)C=C3C)nc2c1 | -3.19%
39 | COCCn1cc(C(=O)N2CCCC2c2cccc(C)c2)ccc1=O (configuration not stated) | -4.94%
40 | O=C(O)c1nnn(-c2cc(F)cc(F)c2)c1-c1ccncc1 | 8.43%
41 | Cn1ccnc1CN1CCCN(C(=O)C2(C#N)CCCCC2)CC1 | 1.4%
42 | CCc1nnsc1C(=O)NC1CCN(CCOc2ccc(Br)cc2)CC1 | -4.31%
43 | O=C(CC1CCCC1)N1CCC(c2nnc(-c3ccccn3)o2)CC1 | 31.3%
44 | COC(=O)C(C)(C)NC(=O)c1cc2sc(N(C)C)nc2s1 | -13.9%
45 | CC(C)(C)NC(=O)N1CCCn2nc(C(=O)Nc3ccccc3)cc2C1 | -12.5%
46 | FC1(F)CCN(Cc2cccnc2)CC12CCN(c1ccccn1)C2 (configuration not stated) | -15.1%

Row | SMILES | cytotoxicity at 70.5 h
47 | Cc1ccc(C(=O)N2C[C@@H](C(=O)O)[C@H](c3ccncc3)C2)cc1F | -5.6%
48 | CC(=O)c1c(C)nn(S(=O)(=O)c2ccc(C)cc2)c1C | 0.514%
49 | CCOc1ccc(NC(=O)N(C)Cc2cnn(C)c2)c(C)c1 | -5.21%
50 | CNC(=O)C1CCN(C(=O)c2ccn(-c3ccc(F)cc3)n2)CC1 | -15%
51 | CCN1Cc2ccccc2CC2(CCN(CC3CCC3)CC2)C1=O | 11.7%
52 | COC(=O)CC1CCN(C(=O)c2ccc(-n3nnnc3C)cc2)CC1 | -11.6%
53 | O=C(Nc1ccccc1)N1C(CN2CCOCC2)[C@]2(O)CC[C@H]1CC2 (some centres not stated) | -2.88%
54 | O=C(Cn1c(=O)oc2ccccc21)NCC1(O)CCc2ccccc21 (configuration not stated) | -6.07%
55 | Cc1csc(N2CCCN(C(=O)c3csc(C)n3)CC2)n1 | -10.6%
56 | Cc1cc(C2CCCN(Cc3ncc(C)o3)C2)n[nH]1 (configuration not stated) | -10.2%
57 | N[C@@H]1c2ccccc2C2(CCN(C(=O)c3cncc(Cl)c3)CC2)[C@H]1O | 19%
58 | COCCCN1CC2(CCC1=O)CCN(Cc1cc(C)no1)CC2 | 12.2%
59 | Cc1nn(C)c(Cl)c1C1CCCN1CC(=O)Nc1cccnc1 (configuration not stated) | -6.29%
60 | CCOCCCn1c(NC(=O)c2cnc(C)cn2)nc2ccccc21 | -5.61%
61 | COc1ccccc1CC(C)CC(=O)NC(C)C (configuration not stated) | 0.743%
62 | Cc1cc(N2CCCC2c2cnccn2)ncn1 (configuration not stated) | -5.35%
63 | CCN1C(=O)C2(CCCCC2)NC12CCSCC2 | -7.61%
64 | CCS(=O)(=O)NCCCNC(=O)N(C)C(C)c1ccccn1 (configuration not stated) | -5.57%
65 | Cc1nc(C(C)C)sc1C(=O)NCCNc1ncccc1C#N | -1.44%
66 | Cn1cc(C(=O)N2CCCC(c3cc(O)n(C)n3)C2)cn1 (configuration not stated) | 7.43%
67 | Cc1noc(C)c1CN1CCC2(CC1)NC(=O)CC2c1ccncc1 (configuration not stated) | -9.41%
68 | COc1cccc(CN(C)C(=O)CN2CCN(CCO)CC2)c1 | -7.48%
69 | c1cc(CN2CCCCC2c2ccc(Nc3cnccn3)nc2)ccn1 (configuration not stated) | -4.05%

Row | SMILES | cytotoxicity at 70.5 h
70 | CN(CCc1ccccn1)C1CCCN(Cc2noc(C3CC3)n2)C1 (configuration not stated) | -4.84%
71 | Cc1noc(C)c1CC(=O)N1CCc2sccc2C1 | -4.18%
72 | Cc1cccc(C)c1NC(=O)NCC1CCCN(C2CCOCC2)C1 (configuration not stated) | -8.66%
73 | CCn1cc(NC(=O)c2c(C)nn(C)c2C)c(C(N)=O)n1 | 19%
74 | CCCn1nc2c(cc1=O)CN(c1ncnc3ccsc13)CC2 | -13%
75 | CCCc1nc(N2Cc3cnn(Cc4ccc(F)cc4)c3C2)no1 | -12.8%
76 | Cc1cc(NCc2cccc(C#N)c2)ccc1C(=O)N(C)C | -9.77%
77 | Cc1nn2cnnc2c(C)c1CCC(=O)Nc1nnc(C(C)C)s1 | 12.1%
78 | Cc1c(-c2cc(-c3cnn(C)c3C)n(CC(=O)NC3CC3)n2)cnn1C | 19.6%
79 | Cc1nc(CN2C[C@@H]3CN(C(=O)c4ccnnc4)C[C@@H]3C2=O)cs1 | -3.08%
80 | O=C(NCCNc1ccccn1)NC1CCCC1 | -4.33%
81 | CN1CCOC(CNC(=O)CCCOCCc2ccccc2)C1 (configuration not stated) | -14.2%
82 | CCOc1cccnc1C(=O)N1CCC(c2ccccc2OC)C1 (configuration not stated) | -8.54%
83 | Cc1ccc(OCC(O)COC2CCOCC2)c(Br)c1 (configuration not stated) | -10.6%
84 | N#Cc1cccc(CN2C(=O)C3(CCNCC3)Nc3ccccc32)c1 | 13.4%
85 | Cn1ccnc1CN1CCC2(CC1)CCN(Cc1ccoc1)C2 | -2.31%
86 | CC(=O)N1CCN(c2nc3c(cnn3C(C)(C)C)c(=O)[nH]2)CC1 | -1.03%
87 | O=C(c1cc(C2CC2)[nH]n1)N1CCCC(n2cncn2)C1 (configuration not stated) | -0.297%
88 | COc1ccccc1OC1CCN(Cc2cccnc2)CC1 | -3.86%
89 | NCc1cn(-c2ccccc2C(=O)NCc2ccccc2)cn1 | -18.9%
90 | CC(C)c1noc(CS(=O)(=O)CC(=O)NCc2ccccc2)n1 | -9.16%
91 | O=C(CN1CCCC1Cn1cccn1)NCCOc1cccc(F)c1 (configuration not stated) | -0.693%
92 | N#Cc1cnc2ccccc2c1N1CCC(C(=O)O)CC1 | -4.5%

Row | SMILES | cytotoxicity at 70.5 h
93 | Cc1[nH]c2c(C)cccc2c1CC(=O)N(C)CCN(C)C | -8.69%
94 | O=C1NCCCCC1NC(=O)C1(c2cccc(Cl)c2)CC1 (configuration not stated) | -0.123%
95 | O=C(c1ccc(CN2CC(n3cccn3)C2)cc1)N1CCCC1 | -0.354%
96 | O=C(c1[nH]nc(C2CC2)c1Cl)N1CCN(C2CC2)C(=O)C1 | -1.73%
97 | Cc1ccncc1CN1CCOCC1c1[nH]ncc1C (configuration not stated) | -1.54%
98 | CN(C(=O)c1ccccc1N(C)S(C)(=O)=O)c1ccc(C(C)(C)C)cc1 | 5.15%
99 | CC(=O)N1CCC2(CC1)CN(C(=O)[C@@H]1CSCN1)c1ccc(Cl)cc12 | 1.24%
100 | Cc1cc(N(C)C)nc(C2(C)CCCN2C(=O)c2cncnc2C)n1 (configuration not stated) | -10.8%
101 | O=C(CC(F)(F)F)NC(c1ccc(Cl)cc1)c1ncon1 (configuration not stated) | -3.08%
102 | CC1CCc2nn(CCNC(=O)C3CCCC3)c(=O)cc2C1 (configuration not stated) | -3.14%
103 | O=C(CCCN1C(=O)CCC1=O)NCC1(c2ccccc2)CCC1 | -11.4%
104 | CNC(=O)[C@H]1CO[C@H]2CCN(Cc3ccc4ccccc4n3)C[C@H]2C1 | -0.28%
105 | COc1cc2c(cc1OC)CN(C(=O)NC(C)c1nncn1C)CC2 (configuration not stated) | 26.1%
106 | COc1ccc(NC(=O)c2cccc(CN3CCCC3C)c2)cc1OC (configuration not stated) | -2.34%
107 | N#Cc1cccc(CN2CCn3cc(Cn4cccn4)nc3C2)c1 | -16%
108 | Cc1ccc(CN2CCC(n3cc(CN4CCC(O)CC4)nn3)CC2)s1 | -6.27%
109 | CC(C)C(=O)NC1COC2(CCN(C(=O)c3cccnc3)CC2)C1 (configuration not stated) | -3.81%
110 | Cn1ccnc1NC[C@@H]1CCC[C@@H]2CN(CC3CC3)C[C@@H]21 | -9.55%
111 | N#Cc1ccc(S(=O)(=O)Nc2ccc(N3CCOCC3)cn2)cc1 | 0.03%
112 | CC(C)CCN1C(=O)c2ccc(C(=O)NCCc3c[nH]cn3)cc2C1=O | -4.63%

Source: ChEMBL document CHEMBL3507680, “University of Dundee, Gates Library screen for HepG2 cell viability”
